US9260461B2, “Water-soluble derivatives and prodrugs of acacetin and methods of making and using thereof” (Versitech Limited, priority 2014, dated 2016)
Where two headings read alike, the source gives them in different places.

How the values were obtained:
isolated rat hearts = test: Ischemia-reperfusion model in isolated rat hearts (Langendorff): coronary flow rate and contractile function; set-up: species or system SD rats; conditions: for coronary flow rate versus control: n=10-12
Protocol: Male SD rats (250-300 g) were anesthetized with phenobarbital (30 mg/kg, i.p.), and the heart were isolated and mounted to a Langendorff heart perfusion apparatus via the aorta and perfused with Krebs-Henseleit solution at 37° C. gassed with 95% O2 and 5% CO2. A saline-filled latex balloon connected by a polyethylene catheter to a pressure transducer was inserted into the left ventricle via an incision on the left atrium to measure left ventricular (LV) pressure. The balloon volume was adjusted and kept at a diastolic pressure of 0-5 mm Hg following insertion. ECG was recorded with two electrodes placed at the apex and the aorta. Signals were continuously monitored and stored on an IBM compatible PC computer using a multiple channels data acquisition system (Chengdu Instrument Ltd, Chendu, China).
A silk suture was placed around the left anterior descending artery (LAD) 2 mm distal to the left atrial appendage. A short length of polyethylene tube was placed over the suture on LAD as an occluder and the suture was pulled and the tube to ligate the coronary artery to induce regional ischemia. After a 20-min stabilization period, the hearts were treated by vehicle (DMSO control) or 0.3, 1, or 3 μM of the parent compound acacetin (0.3, 1, or 3 μM) for 10 min, and the LAD was ligated for 30-min. The ligation was released to allow for reperfusion for 2 h. Myocardial ischemia was confirmed by a decrease in left ventricular developed pressure and specific ST-T elevation on the ECG. At completing the reperfusion, the hearts were used to perform histological and/or molecular/biochemical analysis.
Hearts were excluded from the study if one of the following criteria was observed: (1) left ventricular developed pressure (LVP) was below 80 mmHg during baseline stabilization; (2) aortic wall was damaged during cannulation leading to a leakage during perfusion; or (3) hearts suffered from sustained irreversible arrhythmia during stabilization.
To determine the mechanisms of cardioprotection, the ischemia-reperfusion model was established in isolated rat hearts using accurate concentrations of the parent compound acacetin. The hearts perfused with the Langendorff system were exposed to 30 min ischemia (coronary ligation) followed by 120 min reperfusion (FIG. 5). After a 20 min stabilization period, the heart was treated with 0.3, 1, 3 μM acacetin, or equivolume vehicle (DMSO) for 10 min and then 30 min during ischemia.

[1] = Solubility of the purified prodrugs versus parent compound acacetin; format: physicochemical
From the text: Prodrug B: Light yellow solid. Yield 54%. C16H11O7PNa2 (408.21). EI-MS: m/z 387.04 [M+H—Na]^+. ^1H NMR (400 MHz, DMSO-d6): δ=12.90 (s, 1H), 8.04 (d, J=8.8 Hz, 2H), 7.10 (d, J=8.8 Hz, 2H), 7.02 (s, 1H), 6.98 (s, 1H), 6.60 (s, 1H), 3.89 (s, 3H) ppm.

myocyte apoptosis = test: TUNEL staining of myocardial slices; set-up: species or system rat; conditions: 3 μM; vehicle 51.1±3.8%; n=5, P<0.01 vs. vehicle
Protocol: To observe the histological changes of the ischemia-reperfusion hearts, the left ventricle was sectioned into 2-3 mm slices and drop-fixed in 10% formalin solution. After adequate fixation (a minimum 48 hours in room temperature), tissue slices were transferred into 70% ethanol for long term storage at 4° C. Tissue paraffin infiltration is processed in the tissue processor (Leica, Asp200s).
When the program was complete, tissue slices with cut side down were transferred into a mold with paraffin to form a block. The tissue block was placed on a microtome (Leica, RM2125/RT, Germany) and cut into ˜5 μm slices. The tissue slices were float on the surface of 37° C. water bath until flat and then collected onto clean glass slides. […]
Terminal deoxynucleotidyl transferase-mediated dUTP nick end labeling (TUNEL) staining of myocardial slices was performed to detect apoptosis in myocardium using the TUNEL Apoptosis detection kit (Genscript, Cat. No L00297, Piscataway, N.J., USA) according to the manufacturer's instructions. […] For quantitative analysis, TUNEL-positive cells in 10 different sectors with approximately 100-200 cells/sector were counted with high-power magnification, Axioskop 2 plus with software Axioversion (Axiovs 20v.4.8.2.0). Apoptotic cells were expressed as percentage of total cells in the field.

[2] = background statement; cited from earlier work

solubility ([1]; aqueous buffer, comparison with Tris solution pH=7.0, read-out: solubility (parent compound, compared with Prodrug A in Tris solution)): < 0.2 µg/mL
solubility ([1]; water, H2O, read-out: solubility (parent compound, compared with Prodrug B in H2O)): < 0.1 µg/mL
SMILES: COc1ccc(-c2cc(=O)c3c(O)cc(O)cc3o2)cc1 [acacetin]
coronary flow rate versus control (isolated rat hearts; 0.3 μM, before ischemia): 108.9±2.3%
coronary flow rate versus control (isolated rat hearts; 1 μM, before ischemia): 122.1±4.9%
increase of heart contractile function (left ventricular systolic pressure and +dP/dT) (isolated rat hearts; 3 μM, before ischemia, n=10, P<0.01): around 10 % of control
coronary flow rate versus control (isolated rat hearts; 3 μM, before ischemia): 125.8±6.6%
improvement of reduced coronary flow rate, difference vs. vehicle (isolated rat hearts; 3 μM, during ischemia and reperfusion, P<0.01 vs. vehicle): 16-25%
prevention of decrease of heart contractile function induced by ischemia-reperfusion, difference vs. vehicle (isolated rat hearts; 3 μM, P<0.01 vs. vehicle): 15-20%
TUNEL-positive nuclei (percentage cell number) (myocyte apoptosis): 20.2±4.1%
water solubility [2]: water-insoluble
